What is called melting point is the temperature of the solid-liquid transition. As to `CC(C)(C)CNc1nc(Nc2cccc(NS(C)(=O)=O)c2)nc2[nH]cnc12` [Example 50, N-{3-[6-(2,2-Dimethyl-propylamino)-9H-purin-2-ylamino]-phenyl}-methanesulfonamide], the melting point was 270 to 273 °C.

In the case of `C[C@H](Nc1nc(Nc2cccc(NS(C)(=O)=O)c2)nc2[nH]ccc12)C(C)(C)C` [Example 51, N-{3-[4-((S)-1,2,2-Trimethyl-propylamino)-7H-pyrrolo[2,3-d]pyrimidin-2-ylamino]-phenyl}-methanesulfonamide], the melting point lay in the range of 128 to 132 °C.

As for `CC(=O)Nc1cccc(CNc2nc(Nc3cccc(NS(C)(=O)=O)c3)nc3[nH]cnc23)c1` [Example 64, N-(3-{[2-(3-Methanesulfonylamino-phenylamino)-9H-purin-6-ylamino]-methyl}-phenyl)-acetamide], the melting point lay in the range of 159 to 162 °C.

`CCC(C)(C)[C@@H](C)Nc1nc(Nc2cccc(NS(C)(=O)=O)c2)nc2[nH]cnc12` [Example 65, N-{3-[6-((R)-1,2,2-Trimethyl-butylamino)-9H-purin-2-ylamino]-phenyl}-methanesulfonamide] came in with a melting point of 143 to 146 °C.

Regarding `CS(=O)(=O)Nc1cccc(Nc2nc(NCc3cccc(N)c3)c3nc[nH]c3n2)c1` [Example 72, N-{3-[6-(3-Amino-benzylamino)-9H-purin-2-ylamino]-phenyl}-methanesulfonamide], the melting point was in the range of 170 to 173 °C.

`CS(=O)(=O)Nc1cccc(Nc2nc(NCc3cccc(O)c3)c3nc[nH]c3n2)c1` [Example 73, N-{3-[6-(3-Hydroxy-benzylamino)-9H-purin-2-ylamino]-phenyl}-methanesulfonamide] registered a melting point of 221 to 225 °C.

In the case of `CS(=O)(=O)Nc1cccc(Nc2nc(NCc3cccc(C#N)c3)c3nc[nH]c3n2)c1` [Example 78, N-{3-[6-(3-Cyano-benzylamino)-9H-purin-2-ylamino]-phenyl}-methanesulfonamide], the melting point lay within 128 to 131 °C.

As to `CC(C)NCCNc1nc(Nc2cccc(NS(C)(=O)=O)c2)nc2[nH]ccc12` [Example 82, N-{3-[4-(2-Isopropylamino-ethylamino)-7H-pyrrolo[2,3-d]pyrimidin-2-ylamino]-phenyl}-methanesulfonamide], the melting point is 127 to 131 °C.

`CC(C)[C@@H](CO)Nc1nc(Nc2cccc(NS(C)(=O)=O)c2)nc2[nH]ccc12` [Example 84, N-{3-[4-((S)-1-Hydroxymethyl-2-methyl-propylamino)-7H-pyrrolo[2,3-d]pyrimidin-2-ylamino]-phenyl}-methanesulfonamide] gave a melting point of 106 to 109 °C.

As for `CC(C)N(CCO)c1nc(Nc2cccc(NS(C)(=O)=O)c2)nc2[nH]ccc12` [Example 87, N-(3-{4-[(2-Hydroxy-ethyl)-isopropyl-amino]-7H-pyrrolo[2,3-d]pyrimidin-2-ylamino}-phenyl)-methanesulfonamide], the melting point lay within 129 to 132 °C.

`CC[C@H](Nc1nc(Nc2cccc(NS(C)(=O)=O)c2)nc2[nH]cnc12)c1ccccc1` [Example 92, N-{3-[6-((S)-1-Phenyl-propylamino)-9H-purin-2-ylamino]-phenyl}-methanesulfonamide] registered a melting point of 138 to 141 °C.

For `CS(=O)(=O)Nc1cccc(Nc2nc(NCc3ccccc3CO)c3nc[nH]c3n2)c1` [Example 93, N-{3-[6-(2-Hydroxymethyl-benzylamino)-9H-purin-2-ylamino]-phenyl}-methanesulfonamide], the melting point is 145 to 148 °C.

`CS(=O)(=O)Nc1cccc(Nc2nc(NCc3ccccc3O)c3nc[nH]c3n2)c1` [Example 94, N-{3-[6-(2-Hydroxy-benzylamino)-9H-purin-2-ylamino]-phenyl}-methanesulfonamide]: the melting point lay within 168 to 171 °C.

As to `C=CS(=O)(=O)Nc1cccc(Nc2nc(N[C@H](C)C(C)(C)C)c3nc[nH]c3n2)c1` [Example 97, Ethenesulfonic acid {3-[6-((R)-1,2,2-trimethyl-propylamino)-9H-purin-2-ylamino]-phenyl}-amide], the melting point was in the range of 133 to 136 °C.

The values above are taken from patent publication US20080261973A1, “Sulphonamidoaniline Derivatives Being Janus Kinase Inhibitors” (Novartis AG, priority 2005, published 2008).
